In patent publication US20180020668A1, “Agricultural Mixtures” (priority 2015, published 2018):

Tests used:
Assay type in all cases: in vivo
[1] = tested on: Rhizoctonia; assay: Corn emergence, vigor and pest infestation study (Example 1, two plantings); conditions: for Plant Emergence: corn, field inoculated with Rhizoctonia, seed treatment, rates per treatment in mg ai/seed; for Plant Emergence / Pest Severity / Pest Incidence / Plant Vigor: about 30 DAP; for Pest Severity: percentage of infected plants; for Pest Incidence / Plant Vigor: rated on a scale of 1 to 9; for Plant Yield: about six months after planting
[2] = tested on: corn; assay: Corn plant stand establishment and yield study (Example 2); conditions: seed treatment, rates in mg active[s] per seed
Description: A study was conducted in order to determine the effects of seed treatments on the number of corn plants per acre and yield. One acre was planted with seeds treated as indicated below in a randomized block design. Treatments were applied to the seeds in a manner known by those of skill in the art. The number of plants was determined for each treatment on four different days before harvest. After harvest, the yield of the plants was determined. The results of this study can be seen below in Tables 2 and 3.

[3] = tested on: corn; assay: Another corn plant stand establishment and yield study (Example 3); conditions: seed treatment, rates in mg active[s] per seed
Description: Another study was conducted in order to determine the effects of seed treatments on the number of corn plants per acre and yield. The study design was the same as the study described in Example 1. The results of this study can be seen below in Tables 3 and 4.

Structure (SMILES): CN1COCN(Cc2cnc(Cl)s2)C1=N[N+](=O)[O-] [Thiamethoxam, 3-[(2-Chloro-1,3-thiazol-5-yl)methyl]-5-methyl-N-nitro-1,3,5-oxadiazinan-4-imine]
- Plant Emergence ([1]; first planting): 19800 plants per acre
- Plant Emergence ([1]; second planting): 25450 plants per acre
- Pest Severity ([1]; first planting): 41.3%
- Pest Incidence ([1]; first planting): 3.8
- Plant Vigor ([1]; first planting): 4.0
- Plant Yield ([1]; first planting): 60.8 Bu/A
- Pest Severity ([1]; second planting): 16.3%
- Pest Incidence ([1]; second planting): 6.5
- Plant Vigor ([1]; second planting): 5.5
- Plant Yield ([1]; second planting): 106.7 Bu/A
- Corn Plant Stand - Number of Plants Per Acre ([2]; 34 DAP): 22052 Plants Per Acre
- Corn Plant Stand - Number of Plants Per Acre ([2]; 116 DAP): 20010 Plants Per Acre
- Corn Plant Yield [3]: 172 Bushels/Acre
